From patent publication US20230340011A1 (Asteroid Therapeutics, priority 2022, published 2023)

Biological target: SREBP-2 (Homo sapiens (Human), UniProt Q12772)
Experiment: In vitro assay SREBP-2: PathHunter U2OS SREBP-2 Nuclear Translocation Cell Line, U18666A-stimulated
Format: cell-based
Settings: PathHunter U2OS SREBP-2 nuclear translocation cells, U18666A 10 μM, overnight (16 hours)

SMILES: CC(=O)N1CCC(C(=O)N(C)CC[C@@H](C)[C@H]2CC[C@H]3[C@@H]4CC=C5C[C@@H](O)CC[C@]5(C)[C@H]4CC[C@]23C)CC1 [Example 408, 1-acetyl-N—((R)-3-((3S,8S,9S,10R,13R,14S,17R)-3-hydroxy-10,13-dimethyl-2,3,4,7,8,9,10,11,12,13,14,15,16,17-tetradecahydro-1H-cyclopenta[a]phenanthren-17-yl)butyl)-N-methylpiperidine-4-carboxamide]
- IC50: 250 to 1000 nM

SMILES: C[C@H](CCC(=O)N1CCC(O)(c2ccncc2)CC1)[C@H]1CC[C@H]2[C@@H]3CC=C4C[C@@H](O)CC[C@]4(C)[C@H]3CC[C@]12C [Example 344, (R)-4-((3S,8S,9S,10R,13R,14S,17R)-3-hydroxy-10,13-dimethyl-2,3,4,7,8,9,10,11,12,13,14,15,16,17-tetradecahydro-1H-cyclopenta[a]phenanthren-17-yl)-1-(4-hydroxy-4-(pyridin-4-yl)piperidin-1-yl)pentan-1-one]
- IC50: < 250 nM

SMILES: COC(=O)N1CCN(C(=O)NC[C@@H](C)[C@H]2CC[C@H]3[C@@H]4CC=C5C[C@@H](O)CC[C@]5(C)[C@H]4CC[C@]23C)CC1 [Example 467, Methyl 4-(((S)-2-((3S,8S,9S,10R,13S,14S,17R)-3-hydroxy-10,13-dimethyl-2,3,4,7,8,9,10,11,12,13,14,15,16,17-tetradecahydro-1H-cyclopenta[a]phenanthren-17-yl)propyl)carbamoyl)piperazine-1-carboxylate]
- IC50: < 250 nM

SMILES: C[C@H](Oc1cccnc1CO)[C@H]1CC[C@H]2[C@@H]3CC=C4C[C@@H](O)CC[C@]4(C)[C@H]3CC[C@]12C [Example 434, (3S,8S,9S,10R,13S,14S,17S)-17-((S)-1-((2-(hydroxymethyl)pyridin-3-yl)oxy)ethyl)-10,13-dim ethyl-2,3,4,7,8,9,10,11,12,13,14,15,16,17-tetradecahydro-1H-cyclopenta[a]phenanthren-3-ol]
- IC50: 250 to 1000 nM

SMILES: CC[C@@H]1NC[C@@H]2CON(C(=O)CC[C@@H](C)[C@H]3CC[C@H]4[C@@H]5CC=C6C[C@@H](O)CC[C@]6(C)[C@H]5CC[C@]34C)[C@@H]21 [Example 48, (R)-1-((3aS,6S,6aS)-6-ethylhexahydro-1H-pyrrolo[3,4-c]isoxazol-1-yl)-4-((3S,8S,9S,10R,13R,14S,17R)-3-hydroxy-10,13-dimethyl-2,3,4,7,8,9,10,11,12,13,14,15,16,17-tetradecahydro-1H-cyclopenta[a]phenanthren-17-yl)pentan-1-one]
- IC50: 250 to 1000 nM

SMILES: C[C@H](COc1ccc(CO)cn1)[C@H]1CC[C@H]2[C@@H]3CC=C4C[C@@H](O)CC[C@]4(C)[C@H]3CC[C@]12C [Example 445, (3S,8S,9S,10R,13S,14S,17R)-17-((S)-1-((5-(hydroxymethyl)pyridin-2-yl)oxy)propan-2-yl)-10,13-dimethyl-2,3,4,7,8,9,10,11,12,13,14,15,16,17-tetradecahydro-1H-cyclopenta[a]phenanthren-3-ol]
- IC50: 250 to 1000 nM

SMILES: Cc1cncc(O[C@@H](C)[C@H]2CC[C@H]3[C@@H]4CC=C5C[C@@H](O)CC[C@]5(C)[C@H]4CC[C@]23C)c1 [Example 432, (3S,8S,9S,10R,13S,14S,17S)-10,13-dimethyl-17-((S)-1-((5-methylpyridin-3-yl)oxy)ethyl)-2,3,4,7,8,9,10,11,12,13,14,15,16,17-tetradecahydro-1H-cyclopenta[a]phenanthren-3-ol]
- IC50: < 250 nM

SMILES: C[C@H](Oc1cnccc1CO)[C@H]1CC[C@H]2[C@@H]3CC=C4C[C@@H](O)CC[C@]4(C)[C@H]3CC[C@]12C [Example 268, (3S,8S,9S,10R,13S,14S,17S)-17-((S)-1-((4-(hydroxymethyl)pyridin-3-yl)oxy)ethyl)-10,13-dim ethyl-2,3,4,7,8,9,10,11,12,13,14,15,16,17-tetradecahydro-1H-cyclopenta[a]phenanthren-3-ol]
- IC50: 250 to 1000 nM

SMILES: COC(=O)N1CCN(C(=O)O[C@@H](C)[C@H]2CC[C@H]3[C@@H]4CC=C5C[C@@H](O)CC[C@]5(C)[C@H]4CC[C@]23C)CC1 [Example 237, 1-(1S)-1-[(1S,3aS,3bS,7S,9aR,9bS,11aS)-7-hydroxy-9a,11a-dimethyl-1H,2H,3H,3aH,3bH,4H,6H,7H,8H,9H,9aH,9bH,10H,11H,11aH-cyclopenta[a]phenanthren-1-yl]ethyl 4-methyl piperazine-1,4-dicarboxylate]
- IC50: < 250 nM

SMILES: C#CC1(O)CCN(C(=O)CC[C@@H](C)[C@H]2CC[C@H]3[C@@H]4CC=C5C[C@@H](O)CC[C@]5(C)[C@H]4CC[C@]23C)CC1 [Example 147, (R)-1-(4-ethynyl-4-hydroxypiperidin-1-yl)-4-((3S,8S,9S,10R,13R,14S,17R)-3-hydroxy-10,13-dimethyl-2,3,4,7,8,9,10,11,12,13,14,15,16,17-tetradecahydro-1H-cyclopenta[a]phenanthren-17-yl)pentan-1-one]
- IC50: < 250 nM

SMILES: COC(=O)NC[C@@H](C)[C@H]1CC[C@H]2[C@@H]3CC=C4C[C@@H](O)CC[C@]4(C)[C@H]3CC[C@]12C [Example 463, methyl ((S)-2-((3S,8S,9S,10R,13S,14S,17R)-3-hydroxy-10,13-dimethyl-2,3,4,7,8,9,10,11,12,13,14,15,16,17-tetradecahydro-1H-cyclopenta[a]phenanthren-17-yl)propyl)carbamate]
- IC50: 250 to 1000 nM

SMILES: CC[C@H]1NC[C@@H]2CON(C(=O)CC[C@@H](C)[C@H]3CC[C@H]4[C@@H]5CC=C6C[C@@H](O)CC[C@]6(C)[C@H]5CC[C@]34C)[C@@H]21 [Example 47, (R)-1-((3aS,6R,6aS)-6-ethylhexahydro-1H-pyrrolo[3,4-c]isoxazol-1-yl)-4-((3S,8S,9S,10R,13R,14S,17R)-3-hydroxy-10,13-dimethyl-2,3,4,7,8,9,10,11,12,13,14,15,16,17-tetradecahydro-1H-cyclopenta[a]phenanthren-17-yl)pentan-1-one]
- IC50: 250 to 1000 nM

SMILES: C[C@H](COc1ccc(CO)cn1)[C@H]1CC[C@H]2[C@@H]3CC=C4C[C@@H](O)CC[C@]4(C)[C@H]3CC[C@]12C [Example 259, (3S,8S,9S,10R,13S,14S,17R)-17-((S)-1-((5-(hydroxymethyl)pyridin-2-yl)oxy)propan-2-yl)-10,13-dimethyl-2,3,4,7,8,9,10,11,12,13,14,15,16,17-tetradecahydro-1H-cyclopenta[a]phenanthren-3-ol]
- IC50: 250 to 1000 nM

SMILES: C=CCN1C[C@H]2CON(C(=O)CC[C@@H](C)[C@H]3CC[C@H]4[C@@H]5CC=C6C[C@@H](O)CC[C@]6(C)[C@H]5CC[C@]34C)[C@H]2C1 [Example 45, (R)-1-((3aR,6aR)-5-allylhexahydro-1H-pyrrolo[3,4-c]isoxazol-1-yl)-4-((3S,8S,9S,10R,13R,14S,17R)-3-hydroxy-10,13-dimethyl-2,3,4,7,8,9,10,11,12,13,14,15,16,17-tetradecahydro-1H-cyclopenta[a]phenanthren-17-yl)pentan-1-one]
- IC50: 250 to 1000 nM

SMILES: C[C@H](CCC(=O)N1CCC(OC(=O)N(C)C)CC1)[C@H]1CC[C@H]2[C@@H]3CC=C4C[C@@H](O)CC[C@]4(C)[C@H]3CC[C@]12C [Example 418, 1-((R)-4-((3S,8S,9S,10R,13R,14S,17R)-3-hydroxy-10,13-dimethyl-2,3,4,7,8,9,10,11,12,13,14,15,16,17-tetradecahydro-1H-cyclopenta[a]phenanthren-17-yl)pentanoyl)piperidin-4-yl dimethylcarbamate]
- IC50: 1000 to 10000 nM

SMILES: C[C@H](CCC(=O)N1CCC(N(C)S(C)(=O)=O)CC1)[C@H]1CC[C@H]2[C@@H]3CC=C4C[C@@H](O)CC[C@]4(C)[C@H]3CC[C@]12C [Example 415, N-{1-[(4R)-4-[(1R,3aS,3bS,7S,9aR,9bS,11aR)-7-hydroxy-9a,11a-dimethyl-1H,2H,3H,3aH,3bH,4H,6H,7H,8H,9H,9aH,9bH,10H,11H,11aH-cyclopenta[a]phenanthren-1-yl]pentanoyl]piperidin-4-yl}-N-methylmethanesulfonamide]
- IC50: 250 to 1000 nM

SMILES: C[C@H](CCC(=O)N1CC[C@@H](Oc2ccncc2)C[C@@H]1C)[C@H]1CC[C@H]2[C@@H]3CC=C4C[C@@H](O)CC[C@]4(C)[C@H]3CC[C@]12C [Example 586, (R)-4-((3S,8S,9S,10R,13R,14S,17R)-3-hydroxy-10,13-dimethyl-2,3,4,7,8,9,10,11,12,13,14,15,16,17-tetradecahydro-1H-cyclopenta[a]phenanthren-17-yl)-1-((2S,4R)-2-methyl-4-(pyridin-4-yloxy)piperidin-1-yl)pentan-1-one]
- IC50: < 250 nM

SMILES: C[C@H](CCC(=O)N1CC[C@H](NS(C)(=O)=O)C1)[C@H]1CC[C@H]2[C@@H]3CC=C4C[C@@H](O)CC[C@]4(C)[C@H]3CC[C@]12C [Example 535, N—((S)-1-((R)-4-((3S,8S,9S,10R,13R,14S,17R)-3-hydroxy-10,13-dimethyl-2,3,4,7,8,9,10,11,12,13,14,15,16,17-tetradecahydro-1H-cyclopenta[a]phenanthren-17-yl)pentanoyl)pyrrolidin-3-yl)methanesulfonamide]
- IC50: 250 to 1000 nM

SMILES: CNC(=O)c1cccnc1OC[C@@H](C)[C@H]1CC[C@H]2[C@@H]3CC=C4C[C@@H](O)CC[C@]4(C)[C@H]3CC[C@]12C [Example 451, 2-((S)-2-((3S,8S,9S,10R,13S,14S,17R)-3-hydroxy-10,13-dimethyl-2,3,4,7,8,9,10,11,12,13,14,15,16,17-tetradecahydro-1H-cyclopenta[a]phenanthren-17-yl)propoxy)-N-methylnicotinamide]
- IC50: < 250 nM

SMILES: CCC1(O)CCN(C(=O)CC[C@@H](C)[C@H]2CC[C@H]3[C@@H]4CC=C5C[C@@H](O)CC[C@]5(C)[C@H]4CC[C@]23C)CC1 [Example 129, (R)-1-(4-ethyl-4-hydroxypiperidin-1-yl)-4-((3S,8S,9S,10R,13R,14S,17R)-3-hydroxy-10,13-dimethyl-2,3,4,7,8,9,10,11,12,13,14,15,16,17-tetradecahydro-1H-cyclopenta[a]phenanthren-17-yl)pentan-1-one]
- IC50: < 250 nM
